The source of these data is patent publication US20200102353A1, “HUMAN ENDOGENOUS RETROVIRAL PROTEIN” (priority 2017, published 2020).

One test deals with HEMO gene. As to the kind of experiment: Effect of DNA demethylation on HEMO gene expression, RT-qPCR. The test is classed as cell-based, human. The following applies: for dose at which HEMO transcripts were detectable by qRT-PCR: 3-day treatment, doses 0.1 to 5 μM. The procedure: For treatment with 5-Aza-2′-deoxycytidine (5-Aza-dC; SIGMA-ALDRICH), 2×10^5 BeWo and 293T cells were plated in 6-well dishes. Doses ranging from 0.1 to 5 μM of 5-Aza-dC were then added to the culture for 3 days, with fresh medium each day. Cells were harvested for RNA extraction one day later.
Total RNAs from human tissues and cells were either purchased from ZYAGEN (San Diego), or isolated using the RNAeasy Isolation Kit (QIAGEN) according to the manufacturer's instructions, and treated with Dnase I (AMBION). Reverse transcription was performed with 1 μg of RNA using the MLV reverse-transcriptase (APPLIED BIOSYSTEMS). Real-time quantitative PCR was carried out with 5 μl of diluted (1:20) cDNA in a final volume of 25 μl by using SYBR green PCR master mix (QIAGEN). qPCR was carried out with an ABI Prism 7000 sequence detection system, using primers listed in Table 4 above. Transcript levels were normalized relative to the amount of a housekeeping gene (RPLPO or G6PD) mRNA. Samples were assayed in duplicate.
Background: Quantitative PCR measures a nucleic acid by following its amplification.

Test [1] concerns HEMO release in the supernatant. Briefly: Inhibition of HEMO release (shedding) in supernatant of phCMV-HEMO transfected 293T cells, Western blot. The test is classed as cell-based, human. Particulars: 293T cells transfected with phCMV-HEMO, treated 3 days, BATIMASTAT 0.1 to 10 μM, MARIMASTAT 0.1 to 10 μM, GM6001 1 to 50 μM. As to the method:
For treatment with metalloprotease inhibitors, 5×10^5 293T cells were seeded in 6-well dishes with 2 mL/well of culture medium. One day after seeding, cells were transiently transfected using 1.5 μg phCMV-HEMO plasmid and 4.5 μL Lipofectamine LTX (THERMOFISHER) per well. One day post-transfection, cells were incubated with culture medium supplemented with the indicated concentrations of metalloprotease inhibitors (CALBIOCHEM): BATIMASTAT (0.1 to 10 μM), MARIMASTAT (0.1 to 10 μM) or GM6001 (1 to 50 μM). Medium with inhibitors was replenished for 2 other days, and supernatants were collected and filtered through 0.45 μm MILLIPORE filters one day later. Cells were harvested the same day for protein analysis.
Samples, cell supernatants or cell lysates were analyzed by SDS/PAGE on gradient precast gels (NuPAGE NOVEX 4-12% Bis-Tris gels, LIFE TECHNOLOGIES), and transfer onto nitrocellulose membranes using a semi-dry transfer system. […] Proteins were detected by using an enhanced chemiluminescence system (ECL, PIERCE).
A general note: A western blot detects proteins with antibodies after separation by electrophoresis.

For `Nc1ncn([C@H]2C[C@H](O)[C@@H](CO)O2)c(=O)n1` [5-Aza-dC, 5-Aza-2′-deoxycytidine], the “dose at which HEMO transcripts were detectable by qRT-PCR” value worked out at 5 µM in the test with HEMO gene (293T cells) and 0.1 µM in the test with HEMO gene (BeWo cells). Besides, in the test with HEMO gene (CaCo-2 cells (HEMO-expressing), similar 5-Aza-dC treatment), the “HEMO gene transcript level after treatment” value was “not further amplified”.

Turning to `CNC(=O)[C@H](Cc1c[nH]c2ccccc12)NC(=O)[C@@H](CC(=O)NO)CC(C)C` [GM6001], in test [1], the “HEMO release in the supernatant” value is reported as “clearly inhibited HEMO release in the supernatant”.

Take `CNC(=O)[C@@H](NC(=O)[C@H](CC(C)C)[C@H](O)C(=O)NO)C(C)(C)C` [MARIMASTAT]: in test [1], the “HEMO release in the supernatant” value is listed as “clearly inhibited HEMO release in the supernatant”.
